From patent US10023593B2, “ALK kinase inhibitor, and preparation method and uses thereof” (BEIJING PEARL BIOTECHNOLOGY LIMITED LIABILITY COMPANY, priority 2014, dated 2018)
Each block holds one molecule with its values, some of them ahead of it.

How the values were obtained:
NCI-H2228 cell line = assay: CellTiter-Glo cell proliferation inhibition on NCI-H2228 cell line; format: cell-based; conditions: Homo sapiens, NCI-H2228 cells, 5000 cells/well, 4 days drug treatment
How it was run: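 NCI-H2228 cells, 5000/well in RPMI-1640 + 10% FBS, treated with compounds 2 h after seeding (0.5% DMSO final) for 4 days at 37° C. Viability by CellTiter-Glo luminescence; inhibition relative to DMSO control, IC50 from curve fit.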

L1196M mutant ALK kinase = biological target: T1, L1196M mutant ALK kinase (Homo sapiens, UniProt Q9UM73, L1196M); assay: HTRF KinEASE-TK assay, inhibitory activity on L1196M mutant ALK kinase; format: biochemical; conditions: L1196M mutant ALK 1 ng/μl, substrate 1 μM, ATP 5 μM, 30° C. 35 minutes, read-out: Inhibition on ALK kinases (L1196M mutant), IC50
T1 construct: purchased Sino-US Crown Bioscience, Inc. batch number ALKm_20110923
T1 sequence (Q9UM73 19-1620 L1196M): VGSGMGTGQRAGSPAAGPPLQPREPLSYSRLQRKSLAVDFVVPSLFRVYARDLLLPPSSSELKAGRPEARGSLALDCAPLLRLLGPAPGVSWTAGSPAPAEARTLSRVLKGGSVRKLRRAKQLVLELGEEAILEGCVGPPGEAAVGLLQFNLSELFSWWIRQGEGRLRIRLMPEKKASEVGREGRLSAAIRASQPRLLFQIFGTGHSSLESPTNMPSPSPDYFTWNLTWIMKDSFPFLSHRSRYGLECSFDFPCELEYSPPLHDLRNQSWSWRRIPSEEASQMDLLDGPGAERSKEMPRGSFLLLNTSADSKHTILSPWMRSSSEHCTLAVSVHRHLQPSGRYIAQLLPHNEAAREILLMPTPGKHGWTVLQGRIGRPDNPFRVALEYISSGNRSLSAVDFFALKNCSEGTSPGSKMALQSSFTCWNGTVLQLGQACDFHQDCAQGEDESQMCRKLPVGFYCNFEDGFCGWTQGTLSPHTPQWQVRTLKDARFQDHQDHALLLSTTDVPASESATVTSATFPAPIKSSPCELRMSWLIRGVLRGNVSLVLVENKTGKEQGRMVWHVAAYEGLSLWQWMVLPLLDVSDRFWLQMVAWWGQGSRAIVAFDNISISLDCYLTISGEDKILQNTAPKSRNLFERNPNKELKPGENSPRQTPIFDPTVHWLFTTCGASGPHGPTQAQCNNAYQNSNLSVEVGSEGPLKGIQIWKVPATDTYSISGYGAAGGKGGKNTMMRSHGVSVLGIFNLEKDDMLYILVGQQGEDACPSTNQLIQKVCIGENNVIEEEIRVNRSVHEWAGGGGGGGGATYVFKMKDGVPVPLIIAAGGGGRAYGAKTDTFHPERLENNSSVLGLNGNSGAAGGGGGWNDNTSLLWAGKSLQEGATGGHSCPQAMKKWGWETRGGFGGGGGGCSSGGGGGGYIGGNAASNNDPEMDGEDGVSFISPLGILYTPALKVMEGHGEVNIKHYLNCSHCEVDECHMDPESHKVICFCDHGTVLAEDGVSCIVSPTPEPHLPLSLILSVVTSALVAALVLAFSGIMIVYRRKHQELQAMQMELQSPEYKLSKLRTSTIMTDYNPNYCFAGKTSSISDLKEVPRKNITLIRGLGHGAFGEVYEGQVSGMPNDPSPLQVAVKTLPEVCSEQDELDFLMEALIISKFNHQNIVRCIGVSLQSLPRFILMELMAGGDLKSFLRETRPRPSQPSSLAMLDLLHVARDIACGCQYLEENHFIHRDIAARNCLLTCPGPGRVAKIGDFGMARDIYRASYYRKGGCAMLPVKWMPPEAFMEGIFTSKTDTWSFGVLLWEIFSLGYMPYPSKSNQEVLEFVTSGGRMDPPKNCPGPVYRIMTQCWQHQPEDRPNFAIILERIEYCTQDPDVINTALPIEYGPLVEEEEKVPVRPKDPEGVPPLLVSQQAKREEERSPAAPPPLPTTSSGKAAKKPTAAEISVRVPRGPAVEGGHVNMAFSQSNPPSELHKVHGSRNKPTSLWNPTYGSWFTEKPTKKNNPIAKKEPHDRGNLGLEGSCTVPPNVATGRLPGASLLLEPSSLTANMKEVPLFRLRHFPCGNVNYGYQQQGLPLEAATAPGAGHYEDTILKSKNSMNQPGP
How it was run: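 HTRF TK assay: mutant kinase 1 ng/μl, substrate 1 μM, ATP 5 μM, 5 mM MgCl2, 1 mM DTT, 1% DMSO, 35 min at 30 °C. 665/615 ratio read; inhibition normalised to no-compound and 10.4 μM LDK-378 controls; IC50 from curve fit.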

cytochrome P450 2C9 = cytochrome P450 2C9 (Homo sapiens, UniProt P11712); assay: Inhibitory activity on cytochrome P450 2C9; format: in vitro ADME; conditions: no significant inhibition
cytochrome P450 2C9, sequence (P11712 whole entry): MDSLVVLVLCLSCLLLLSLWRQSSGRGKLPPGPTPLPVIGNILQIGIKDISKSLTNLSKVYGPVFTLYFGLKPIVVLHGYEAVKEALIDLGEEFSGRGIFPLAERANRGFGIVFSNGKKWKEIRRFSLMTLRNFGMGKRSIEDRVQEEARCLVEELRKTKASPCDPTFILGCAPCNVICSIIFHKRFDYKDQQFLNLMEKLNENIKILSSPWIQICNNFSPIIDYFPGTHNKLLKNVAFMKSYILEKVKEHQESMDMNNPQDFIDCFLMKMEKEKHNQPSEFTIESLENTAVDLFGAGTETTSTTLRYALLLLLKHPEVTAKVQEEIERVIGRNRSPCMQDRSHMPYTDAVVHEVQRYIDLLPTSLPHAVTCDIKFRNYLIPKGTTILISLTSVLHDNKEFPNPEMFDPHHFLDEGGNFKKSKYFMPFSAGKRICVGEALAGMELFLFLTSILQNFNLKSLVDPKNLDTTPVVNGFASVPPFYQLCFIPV

cytochrome P450 3A4 = cytochrome P450 3A4 (Homo sapiens, UniProt P08684); assay: Inhibitory activity on cytochrome P450 3A4; format: in vitro ADME; conditions: no significant inhibition
cytochrome P450 3A4, sequence (P08684 whole entry): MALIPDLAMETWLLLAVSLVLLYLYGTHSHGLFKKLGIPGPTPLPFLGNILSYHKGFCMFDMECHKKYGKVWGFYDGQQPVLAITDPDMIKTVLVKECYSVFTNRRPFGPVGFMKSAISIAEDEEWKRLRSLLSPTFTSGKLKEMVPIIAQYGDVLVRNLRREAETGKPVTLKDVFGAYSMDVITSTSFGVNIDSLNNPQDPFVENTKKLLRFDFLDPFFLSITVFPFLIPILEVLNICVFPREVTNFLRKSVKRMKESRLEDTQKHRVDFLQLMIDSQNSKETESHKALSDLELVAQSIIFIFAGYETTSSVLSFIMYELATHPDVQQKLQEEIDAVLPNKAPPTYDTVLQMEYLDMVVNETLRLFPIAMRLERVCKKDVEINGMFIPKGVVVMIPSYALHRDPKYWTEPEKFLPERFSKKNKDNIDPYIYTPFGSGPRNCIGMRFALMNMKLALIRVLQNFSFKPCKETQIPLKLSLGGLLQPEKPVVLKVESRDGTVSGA

cytochrome P450 2D6 = cytochrome P450 2D6 (Homo sapiens, UniProt P10635); assay: Inhibitory activity on cytochrome P450 2D6; format: in vitro ADME; conditions: no significant inhibition
cytochrome P450 2D6, sequence (P10635 whole entry): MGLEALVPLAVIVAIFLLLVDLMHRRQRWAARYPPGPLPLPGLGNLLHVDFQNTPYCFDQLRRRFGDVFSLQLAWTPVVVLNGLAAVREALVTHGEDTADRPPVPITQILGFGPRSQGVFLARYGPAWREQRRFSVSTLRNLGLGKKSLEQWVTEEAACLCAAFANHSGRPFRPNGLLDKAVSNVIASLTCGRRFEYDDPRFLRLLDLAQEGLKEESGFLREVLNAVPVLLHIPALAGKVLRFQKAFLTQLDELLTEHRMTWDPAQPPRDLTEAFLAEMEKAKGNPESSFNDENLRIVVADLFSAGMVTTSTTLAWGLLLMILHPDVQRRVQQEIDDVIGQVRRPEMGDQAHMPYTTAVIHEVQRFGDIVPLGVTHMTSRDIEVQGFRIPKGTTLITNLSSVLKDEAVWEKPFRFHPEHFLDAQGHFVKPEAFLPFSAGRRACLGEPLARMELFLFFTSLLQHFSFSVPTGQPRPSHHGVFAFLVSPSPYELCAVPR

SMILES: CC(C)CS(=O)(=O)c1nn(C)cc1Nc1nc(Nc2ccc(C3CCN(C)CC3)cc2OC2CC2)ncc1Cl [Final product 43]
- IC50 (NCI-H2228 cell line; NCI-H2228, 96 h): 125 nM
- IC50 (L1196M mutant ALK kinase): 12 nM
- IC50 (cytochrome P450 2C9): > 10000 nM
- IC50 (cytochrome P450 3A4): > 10000 nM
- IC50 (cytochrome P450 2D6): > 10000 nM

SMILES: CC(C)S(=O)(=O)c1nn(C2CC2)cc1Nc1nc(Nc2cc(F)c(C3CCN(C)CC3)cc2OC2CC2)ncc1Cl [Final product 46]
- IC50 (NCI-H2228 cell line; NCI-H2228, 96 h): 127 nM
- IC50 (L1196M mutant ALK kinase): 6 nM
- IC50 (cytochrome P450 2C9): > 10000 nM
- IC50 (cytochrome P450 3A4): > 10000 nM
- IC50 (cytochrome P450 2D6): > 10000 nM

SMILES: CC(C)S(=O)(=O)c1nn(C)cc1Nc1nc(Nc2cc(Cl)c(C3CCN(C)CC3)cc2OC2CC2)ncc1Cl [Final product 47]
- IC50 (NCI-H2228 cell line; NCI-H2228, 96 h): 103 nM
- IC50 (L1196M mutant ALK kinase): 10 nM
- IC50 (cytochrome P450 2C9): > 10000 nM
- IC50 (cytochrome P450 3A4): > 10000 nM
- IC50 (cytochrome P450 2D6): > 10000 nM

SMILES: Cc1cc(Nc2ncc(Cl)c(Nc3cn(C)nc3S(=O)(=O)C(C)C)n2)c(OC2CC2)cc1C1CCN(CCO)CC1 [Final product 133, 2-(4-(4-(5-chloro-4-(3-(isopropylsulfonyl)-1-methyl-1H-pyrazol-4-amino)pyrimidin-2-amino)-5-cyclopropoxy-2-methylphenyl)piperidin-1-yl) ethanol]
- IC50 (NCI-H2228 cell line; 96 h): 41 nM
- IC50 (L1196M mutant ALK kinase): 6 nM
- IC50 (cytochrome P450 2C9): > 10000 nM
- IC50 (cytochrome P450 3A4): > 10000 nM
- IC50 (cytochrome P450 2D6): > 10000 nM

SMILES: Cc1cc(Nc2ncc(Cl)c(Nc3cn(C)nc3S(=O)(=O)C(C)C)n2)c(OC2CC2)cc1C1CCN(CCN(C)C)CC1 [Final product 146, 5-chloro-N^2-(2-cyclopropoxy-4-(1-(2-(dimethylamino)ethyl)piperidin-4-yl)-5-methylphenyl)-N^4-(3-(isopropylsulfonyl)-1-methyl-1H-pyrazol-4-yl)-pyrimidin-2,4-diamine]
- IC50 (NCI-H2228 cell line; 96 h): 199 nM
- IC50 (L1196M mutant ALK kinase): 5 nM
- IC50 (cytochrome P450 2C9): > 10000 nM
- IC50 (cytochrome P450 3A4): > 10000 nM
- IC50 (cytochrome P450 2D6): > 10000 nM

SMILES: Cc1cc(Nc2ncc(Cl)c(Nc3cn(C)nc3S(=O)(=O)C(C)C)n2)c(OC2CC2)cc1C1CCN(S(C)(=O)=O)CC1 [Final product 167, 5-chloro-N^2-(2-cyclopropoxy-5-methyl-4-(1-methanesulfonyl-piperidin-4-yl)-phenyl)-N^4-(3-(isopropylsulfonyl)-1-methyl-1H-pyrazol-4-yl)pyrimidin-2,4-diamine]
- IC50 (NCI-H2228 cell line; NCI-H2228, 96 h): 59 nM
- IC50 (L1196M mutant ALK kinase): 11 nM
- IC50 (cytochrome P450 2C9): > 10000 nM
- IC50 (cytochrome P450 3A4): > 10000 nM
- IC50 (cytochrome P450 2D6): > 10000 nM

SMILES: CC(=O)N1CCN([C@H]2CC[C@H](c3cc(OC4CC4)c(Nc4ncc(Cl)c(Nc5cn(C)nc5S(=O)(=O)C(C)C)n4)cc3C)CC2)CC1 [Final product 204]
- IC50 (NCI-H2228 cell line; NCI-H2228, 96 h): 76 nM
- IC50 (L1196M mutant ALK kinase): 18 nM
- IC50 (cytochrome P450 2C9): > 10000 nM
- IC50 (cytochrome P450 3A4): > 10000 nM
- IC50 (cytochrome P450 2D6): > 10000 nM

SMILES: Cc1cc(Nc2ncc(Cl)c(Nc3cn(C)nc3S(=O)(=O)C(C)C)n2)c(OC2CC2)cc1C1=C(Cl)CN(C)CC1 [Final product 208, 5-chloro-N^2-[4-(5-chloro-1-methyl-1,2,3,6-tetrahydro-pyridin-4-yl)-2-cyclopropoxy-5-methyl-phenyl]-N^4-[1-methyl-3-(isopropylsulfonyl)-1H-pyrazol-4-yl]-pyrimidin-2,4-diamine]
- IC50 (NCI-H2228 cell line; NCI-H2228, 96 h): 152 nM
- IC50 (L1196M mutant ALK kinase): 36 nM

The next lines start with the values.

- IC50 (NCI-H2228 cell line; NCI-H2228, 96 h): 36 nM
- IC50 (L1196M mutant ALK kinase): 5 nM
- IC50 (cytochrome P450 2C9): > 10000 nM
- IC50 (cytochrome P450 3A4): > 10000 nM
- IC50 (cytochrome P450 2D6): > 10000 nM
SMILES: CC(C)S(=O)(=O)c1nn(C)cc1Nc1nc(Nc2ccc(C3CCN(C)CC3)cc2OC2CC2)ncc1Cl [Final product 40]

- IC50 (NCI-H2228 cell line; NCI-H2228, 96 h): 26 nM
- IC50 (L1196M mutant ALK kinase): 3 nM
- IC50 (cytochrome P450 2C9): > 10000 nM
- IC50 (cytochrome P450 3A4): > 10000 nM
- IC50 (cytochrome P450 2D6): > 10000 nM
SMILES: Cc1cc(Nc2ncc(Cl)c(Nc3cn(C)nc3S(=O)(=O)C(C)C)n2)c(OC2CC2)cc1C1CC(C)N(C)C(C)C1 (stereo not shown) [Final product 95]

- IC50 (NCI-H2228 cell line; NCI-H2228, 96 h): 44 nM
- IC50 (L1196M mutant ALK kinase): 10 nM
- IC50 (cytochrome P450 2C9): > 10000 nM
- IC50 (cytochrome P450 3A4): > 10000 nM
- IC50 (cytochrome P450 2D6): > 10000 nM
SMILES: Cc1cc(Nc2ncc(Cl)c(Nc3cn(C)nc3S(=O)(=O)C(C)C)n2)c(OC2CC2)cc1C1CCN(C2COC2)CC1 [Final product 156]

- IC50 (NCI-H2228 cell line; NCI-H2228, 96 h): 35 nM
- IC50 (L1196M mutant ALK kinase): 9 nM
- IC50 (cytochrome P450 2C9): > 10000 nM
- IC50 (cytochrome P450 3A4): > 10000 nM
- IC50 (cytochrome P450 2D6): > 10000 nM
SMILES: CC(=O)N1CCC(c2cc(OC3CC3)c(Nc3ncc(Cl)c(Nc4cn(C)nc4S(=O)(=O)C(C)C)n3)cc2C)CC1 [Final product 160, 1-acetyl-4-(4-(5-chloro-4-(3-(isopropylsulfonyl)-1-methyl-1H-pyrazol-4-amino)pyrimidin-2-amine)-5-cyclopropoxy-2-methylphenyl)piperidine]

- IC50 (NCI-H2228 cell line; NCI-H2228, 96 h): 47 nM
- IC50 (L1196M mutant ALK kinase): 43 nM
- IC50 (cytochrome P450 2C9): > 10000 nM
- IC50 (cytochrome P450 3A4): > 10000 nM
- IC50 (cytochrome P450 2D6): > 10000 nM
SMILES: Cc1cc(Nc2ncc(Cl)c(Nc3cn(C)nc3S(=O)(=O)C(C)C)n2)c(OC2CC2)cc1C1CCN(C(=O)C(F)(F)F)CC1 [Final product 161, 1-trifluoroacetyl-4-(4-(5-chloro-4-(3-(isopropylsulfonyl)-1-methyl-1H-pyrazol-4-amino)pyrimidin-2-amine)-5-cyclopropoxy-2-methylphenyl)piperidine]

- IC50 (NCI-H2228 cell line; NCI-H2228, 96 h): 42 nM
- IC50 (L1196M mutant ALK kinase): 6 nM
- IC50 (cytochrome P450 2C9): > 10000 nM
- IC50 (cytochrome P450 3A4): > 10000 nM
- IC50 (cytochrome P450 2D6): > 10000 nM
SMILES: Cc1cc(Nc2ncc(Cl)c(Nc3cn(C)nc3S(=O)(=O)C(C)C)n2)c(OC2CC2)cc1C1CCN(C(=O)CC#N)CC1 [Final product 166, 1-cyano acetyl-4-(4-(5-chloro-4-(3-(isopropylsulfonyl)-1-methyl-1H-pyrazol-4-amino)pyrimidin-2-amine)-5-cyclopropoxy-2-methylphenyl)piperidine]
